Reference: patent US12428388B2, “Nonionic polyether surfactants” (Cepheid, priority 2020, dated 2025)

What was measured:
[1] = Stability in 2M NaOH (visual observation); type: physicochemical; details: 1% surfactant in 2M NaOH, room temperature
Protocol: In the following experiments, the properties of exemplary reduced polysorbates were compared with the starting materials purchased from Sigma: Tween 20® BioXtra, Cat No P7949 and Tween 80® BioXtra, Cat No P8074
The following solutions are prepared in two vials: (A) 1% Tween 20® in 2M NaOH; (B) 1% Compound 2 in 2M NaOH. Both solutions were left at room temperature and the changes were observed visually.
Similarly, hydrolytic stability of (A) Tween 80® and (B) Compound 2 were compared.

[2] = molecular target: T1, Lipase from porcine pancreas (Sus scrofa, UniProt P00591); assay: Resistance to Lipase Hydrolysis; type: in vitro ADME; details: 1% surfactant in 10 mM tris-HCl (pH 8.0), CaCl2, Lipase from porcine pancreas (Sigma L3126), room temperature
T1 construct: Lipase from porcine pancreas (Sigma L3126); purchased Sigma L3126; host or cells: porcine pancreas (tissue-derived)
T1 sequence (P00591 1-450): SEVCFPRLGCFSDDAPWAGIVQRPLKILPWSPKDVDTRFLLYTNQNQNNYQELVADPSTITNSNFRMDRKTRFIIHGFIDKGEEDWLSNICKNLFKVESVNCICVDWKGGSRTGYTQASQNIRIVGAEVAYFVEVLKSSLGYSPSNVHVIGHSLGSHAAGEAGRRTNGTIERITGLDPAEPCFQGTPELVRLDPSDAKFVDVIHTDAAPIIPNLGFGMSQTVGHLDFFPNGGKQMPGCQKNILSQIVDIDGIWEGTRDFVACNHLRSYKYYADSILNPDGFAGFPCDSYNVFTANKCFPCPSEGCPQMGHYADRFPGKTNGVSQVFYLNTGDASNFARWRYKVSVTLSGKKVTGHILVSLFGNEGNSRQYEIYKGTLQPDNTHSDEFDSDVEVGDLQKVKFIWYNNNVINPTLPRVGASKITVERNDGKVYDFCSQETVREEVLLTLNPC
Protocol: (§1) Stability of surfactants in the presence of hydrolyzing enzymes was tested according to a simplified literature procedure (Francisco J. Plou, Manuel Ferrer, Oscar M. Nuero, Maria V. Calvo, Miguel Alcalde, Fuensanta Reyes, Antonio Ballesteros. Analysis of Tween 80 as an esterase/lipase substrate for lipolytic activity assay. Biotechnology Techniques, Vol 12, No 3, March 1998, pp. 183-186.)
B1. Resistance to Lipase Hydrolysis
The following solutions are prepared in two vials: (A) to 20 mL of 1% Tween 20® in 10 mM tris-HCl (pH 8.0) is added 1 mL of 5% CaCl2) followed by 2 mL of 2 mg/mL solution of Lipase from porcine pancreas (Sigma L3126) in 10 μM tris-HCl (pH 8.0); (B) to 20 mL of 1% Compound 1 in 10 mM tris-HCl (pH 8.0) is added 1 mL of 5% CaCl2) followed by 2 mL of 2 mg/mL solution of Lipase from porcine pancreas (Sigma L3126) in 10 μM tris-HCl (pH 8.0). Both solutions were left at room temperature, and changes were observed visually.

[3] = system: Esterase from porcine liver; assay: Resistance to Esterase Hydrolysis; type: in vitro ADME; details: 1% surfactant in 10 mM tris-HCl (pH 8.0), CaCl2, Esterase from porcine liver (Sigma E2884), room temperature
Protocol: as §1
B2. Resistance to Esterase Hydrolysis
The following solutions were prepared in two vials: (A) to 20 mL of 1% Tween 20® in 10 mM tris-HCl (pH 8.0) is added 1 mL of 5% CaCl2) followed by 40 μL of 100 UN/mL solution of Esterase from porcine liver (Sigma E2884) in 10 μM tris-HCl (pH 8.0); (B) to 20 mL of 1% Compound 1 in 10 mM tris-HCl (pH 8.0) is added 1 mL of 5% CaCl2 followed by 40 μL of 100 UN/mL solution of Esterase from porcine liver in 10 μM tris-HCl (pH 8.0). Both solutions were left at room temperature and changes were observed visually.

Substance | hydrolytic stability in 2M NaOH, changes of the solution observed visually [1] | stability to lipase hydrolysis, changes of the solution observed visually [2] | stability to esterase hydrolysis, changes of the solution observed visually [3]
polyoxyethylene sorbitan monolaurate [Tween 20®] | became non-transparent within one hour and turned into stiff gel the next day | became cloudy within one hour and became non-transparent the next day | became cloudy within one hour and became non-transparent the next day
polyoxyethylene sorbitan monooleate [Tween 80®] | became cloudy within one hour and turned into a stiff gel the next day | – | –
